Blank lines part the entries; values can stand above or below the molecule they belong to.
What was measured:
Assay type in all cases: in vivo, Glycine max
[1] = system: constitutively GA-deficient transgenic dwarf soybean line 719; test: Field trial of seed coating application rates, GA-deficient soybean; conditions: for 719 Height, cm, Heavy soil / 719 Height, cm, Light soil / No. 719 Emerged, Heavy soil / No. 719 Emerged, Light soil / No. 719 Not Rescued, Heavy soil / No. 719 Not Rescued, Light soil: seed coating
Description: GA3, GA3-3-acetate, GA5, GA9, and GA12 are evaluated in further field trials. […] The objectives of these tests are: 1) to determine if seed coatings, as compared to imbibition, of GA compounds facilitate rescue of constitutively GA-deficient transgenic dwarf soybeans (transgenic lines 719−2 plus 719+17) without causing elongation of wild-type soybeans (line A4922), and 2) to determine the seed treatment rate ranges for each of the selected GA compounds that would provide rescue of constitutively GA-deficient transgenic dwarf soybeans (transgenic lines 719−2 plus 719+17) without causing elongation of wild-type soybeans (line A4922).
Seeds are treated with GA3, GA5, GA9, GA12, and GA3-3-acetate at rates of 0, 0.1, 1, 10, and 100 μg/seed. These GA compounds are applied to the seeds using a Hege 11 seed treater (Hans-Ulrich Hege GmbH & Co., Waldenburg, Germany); 100% acetone is used as the carrier solvent. The amount of liquid introduced into the seed treater is six fluid ounces/100 lbs seed rate. In addition, GA12 is tested at 50 μg/seed. The untreated control (UTC) consisted of dry, untreated seeds. Seeds of constitutively GA-deficient transgenic dwarf soybean line 719 and wild-type A4922 are sown in both light and heavy soil. The planting depth is 0.5 to 1 inch (1.27 to 2.54 cm); watering is via drip irrigation. The experiment is carried out in three repetitions, using 25 seeds/plot (one five foot (152.4 cm) long row) for line 719, and 75 seeds/plot (two eight foot (243.8 cm) rows) for line A4922. Observations included total emergence, number of dwarfs not rescued, uniformity in plant height, average plant height, visual notes, and digital photos.
In all the experiments reported in Tables 17-24, treatments are replicated three times in a randomized block design. Data are analyzed using LSD (least significant difference) 0.05 probability using the PRM 5.0 Statistical Analysis Program (SAS Institute, North Carolina).

[2] = system: transgenic line 719 soybean; test: Field trial of seed coatings under soil compaction / different soils, GA-deficient soybean; conditions: for Count (emergence) / Dwarfs (number of dwarfs not rescued) / Dwarfs (number not rescued): Line 719; for rank of potential for rescuing GA-deficient dwarf soybeans without decreasing emergence: based on the last two field trials; for best to least selectivity order: emergence under soil compaction, margin of selectivity, rescue without overelongation
[3] = system: wild-type soybean line A3237; test: Experiment II second greenhouse test, seed imbibition, wild-type soybean; conditions: seeds imbibed 6 hours
Description: (The compounds are tested in Experiment I at only one concentration, i.e., 0.25 mg/ml). Test tubes contained […] of ethanol solution per tube. Final volumes are made up to 30 ml with deionized water. After shaking, the treatment solutions (15 ml each) are transferred to each of two 50 ml test tubes. […] Twenty seeds are used in each treatment. Dry seed, ethanol/water-imbibed seed (1% ethanol in water, v/v), and water-imbibed seeds are included as controls. Seeds are imbibed for 6 hours in the test solutions, then planted in bread pans containing Metromix 350 (The Scotts Company, Marysville, Ohio), and covered with 0.5″ Metro-mix. Covered pans are transferred to the greenhouse and subirrigated. Illumination is at a light intensity of 300-400 μmolm^−2s^−1 photosynthetic photon flux; 16 hours light/8 hours dark. Subsequent waterings are also through sub-irrigation until the test is terminated three weeks later. Observations included the number of dwarf, intermediate, and tall plants; plant height; uniformity of rescue; and any visual effects. Digital photographs are also taken.

[4] = Heavy soil - Loose, target rate 0.5 μg/seed, Table 23
[5] = Heavy soil - Loose, target rate 2.0 μg/seed, Table 23
[6] = Heavy soil - Loose, target rate 4.0 μg/seed, Table 23
[7] = Heavy soil - compacted, target rate 0.5 μg/seed, Table 23
[8] = Heavy soil - compacted, target rate 2.0 μg/seed, Table 23
[9] = Heavy soil - compacted, target rate 4.0 μg/seed, Table 23
[10] = Heavy soil - loose, target rate 0.5 μg/seed, Table 22
[11] = Heavy soil - loose, target rate 2.0 μg/seed, Table 22
[12] = Light soil - Compacted, target rate 0.5 μg/seed, Table 22
[13] = Light soil - Compacted, target rate 2.0 μg/seed, Table 22
[14] = Light soil - Loose, target rate 0.5 μg/seed, Table 24
[15] = Light soil - Loose, target rate 2.0 μg/seed, Table 24
[16] = Light soil - Loose, target rate 4.0 μg/seed, Table 24
[17] = Light soil - compacted, target rate 0.5 μg/seed, Table 24
[18] = Light soil - compacted, target rate 2.0 μg/seed, Table 24
[19] = Light soil - compacted, target rate 4.0 μg/seed, Table 24

SMILES: C=C1C[C@]23C[C@@]1(O)CC[C@H]2[C@@]12CC=C[C@@](C)(C(=O)O1)[C@H]2[C@@H]3C(=O)O [GA5]
719 Height, cm, Heavy soil ([1]; 0.1 μg compound per seed): 5.0 def cm | 719 Height, cm, Light soil ([1]; 0.1 μg compound per seed): 4.3 fg·cm | No. 719 Emerged, Heavy soil ([1]; 0.1 μg compound per seed): 22.0 ab | No. 719 Emerged, Light soil ([1]; 0.1 μg compound per seed): 21.7 ab | No. 719 Not Rescued, Heavy soil ([1]; 0.1 μg compound per seed): 1.7 def | No. 719 Not Rescued, Light soil ([1]; 0.1 μg compound per seed): 4.3 c | 719 Height, cm, Heavy soil ([1]; 1 μg compound per seed): 4.7 g·cm·days | 719 Height, cm, Light soil ([1]; 1 μg compound per seed): 6.3 e cm | No. 719 Emerged, Heavy soil ([1]; 1 μg compound per seed): 21.0 abc | No. 719 Emerged, Light soil ([1]; 1 μg compound per seed): 22.7 a | No. 719 Not Rescued, Heavy soil ([1]; 1 μg compound per seed): 0.7 ef | No. 719 Not Rescued, Light soil ([1]; 1 μg compound per seed): 0 | 719 Height, cm, Heavy soil ([1]; 10 μg compound per seed): 7.3 bc cm | 719 Height, cm, Light soil ([1]; 10 μg compound per seed): 11.3 bc cm | No. 719 Emerged, Heavy soil ([1]; 10 μg compound per seed): 20.0 a-d | No. 719 Emerged, Light soil ([1]; 10 μg compound per seed): 20.0 a-d | No. 719 Not Rescued, Heavy soil ([1]; 10 μg compound per seed): 0.3 ef | No. 719 Not Rescued, Light soil ([1]; 10 μg compound per seed): 0.7 | 719 Height, cm, Heavy soil ([1]; 100 μg compound per seed): 9.0 ab cm | 719 Height, cm, Light soil ([1]; 100 μg compound per seed): 12.0 b cm | No. 719 Emerged, Heavy soil ([1]; 100 μg compound per seed): 12.3 ef | No. 719 Emerged, Light soil ([1]; 100 μg compound per seed): 14.3 f | No. 719 Not Rescued, Heavy soil ([1]; 100 μg compound per seed): 0 f | No. 719 Not Rescued, Light soil ([1]; 100 μg compound per seed): 0 | Count (emergence) [2, 4]: 31.7 bcd | Dwarfs (number of dwarfs not rescued) [2, 4]: 2.0 cde | Count (emergence) [2, 5]: 32.3 bcd | Dwarfs (number of dwarfs not rescued) [2, 5]: 0.7 cde | Count (emergence) [2, 6]: 30.3 bcd | Dwarfs (number of dwarfs not rescued) [2, 6]: 0 e | Count (emergence) [2, 7]: 18.3 ab | Dwarfs (number of dwarfs not rescued) [2, 7]: 0 days | Count (emergence) [2, 8]: 9.0 g·days | Dwarfs (number of dwarfs not rescued) [2, 8]: 0 days | Count (emergence) [2, 9]: 7.0 efg | Dwarfs (number of dwarfs not rescued) [2, 9]: 0 days | Count (emergence) [2, 10]: 32 bcd | Dwarfs (number of dwarfs not rescued) [2, 10]: 2.0 cde | Count (emergence) [2, 11]: 32 bcd | Dwarfs (number of dwarfs not rescued) [2, 11]: 0.7 cde | Count (emergence) [2, 12]: 39 abc | Dwarfs (number of dwarfs not rescued) [2, 12]: 0 days | Count (emergence) [2, 13]: 30 a-f | Dwarfs (number of dwarfs not rescued) [2, 13]: 0 days | Count (emergence) [2, 14]: 46.3 a | Dwarfs (number not rescued) [2, 14]: 1.0 e | Count (emergence) [2, 15]: 43.3 ab | Dwarfs (number not rescued) [2, 15]: 0 e | Count (emergence) [2, 16]: 45.0 ab | Dwarfs (number not rescued) [2, 16]: 0 e | Count (emergence) [2, 17]: 39.0 abc | Dwarfs (number not rescued) [2, 17]: 0 | Count (emergence) [2, 18]: 30.3 a-f | Dwarfs (number not rescued) [2, 18]: 0 | Count (emergence) [2, 19]: 32.7 a-e | Dwarfs (number not rescued) [2, 19]: 0 | rank of potential for rescuing GA-deficient dwarf soybeans without decreasing emergence [2]: GA9>GA5>GA3-3-acetate>GA3>GA12 | best to least selectivity order ([2]; Table 22): GA9>GA5>GA3-3-acetate>GA3 | Significant Visual Observations on Line A3237 ([3]; 0.025 mg/ml): Normal height

Significant Visual Observations on Line A3237 ([3]; 0.0025 mg/ml): Normal height
SMILES: C=C1C[C@]23C[C@@]1(O)CC[C@H]2[C@@]12C=C[C@H](OC(C)=O)[C@@](C)(C(=O)O1)[C@H]2[C@@H]3C(=O)O [GA3-3-acetate]
719 Height, cm, Heavy soil ([1]; 0.1 μg compound per seed): 3.3 e-i cm | 719 Height, cm, Light soil ([1]; 0.1 μg compound per seed): 5.3 efg cm | No. 719 Emerged, Heavy soil ([1]; 0.1 μg compound per seed): 18.7 a-d | No. 719 Emerged, Light soil ([1]; 0.1 μg compound per seed): 21.0 ab | No. 719 Not Rescued, Heavy soil ([1]; 0.1 μg compound per seed): 0.3 ef | No. 719 Not Rescued, Light soil ([1]; 0.1 μg compound per seed): 0.7 | 719 Height, cm, Heavy soil ([1]; 1 μg compound per seed): 6.0 cd cm | 719 Height, cm, Light soil ([1]; 1 μg compound per seed): 6.3 e cm | No. 719 Emerged, Heavy soil ([1]; 1 μg compound per seed): 21.3 abc | No. 719 Emerged, Light soil ([1]; 1 μg compound per seed): 21.7 ab | No. 719 Not Rescued, Heavy soil ([1]; 1 μg compound per seed): 0 f | No. 719 Not Rescued, Light soil ([1]; 1 μg compound per seed): 0.3 | 719 Height, cm, Heavy soil ([1]; 10 μg compound per seed): 9.0 ab cm | 719 Height, cm, Light soil ([1]; 10 μg compound per seed): 9.3 cm·days | No. 719 Emerged, Heavy soil ([1]; 10 μg compound per seed): 17.7 a-e | No. 719 Emerged, Light soil ([1]; 10 μg compound per seed): 20.3 a-d | No. 719 Not Rescued, Heavy soil ([1]; 10 μg compound per seed): 0 f | No. 719 Not Rescued, Light soil ([1]; 10 μg compound per seed): 0 | 719 Height, cm, Heavy soil ([1]; 100 μg compound per seed): 8.7 ab cm | 719 Height, cm, Light soil ([1]; 100 μg compound per seed): 12.0 b cm | No. 719 Emerged, Heavy soil ([1]; 100 μg compound per seed): 16.7 b-e | No. 719 Emerged, Light soil ([1]; 100 μg compound per seed): 17.7 b-f | No. 719 Not Rescued, Heavy soil ([1]; 100 μg compound per seed): 0 f | No. 719 Not Rescued, Light soil ([1]; 100 μg compound per seed): 0 | preferred seed coating rate in this experiment ([1]; judged on lines 719 and A4922, light and heavy soil): about 1 μg per seed | Count (emergence) [2, 4]: 31.3 bcd | Dwarfs (number of dwarfs not rescued) [2, 4]: 0.3 de | Count (emergence) [2, 5]: 27.3 cd | Dwarfs (number of dwarfs not rescued) [2, 5]: 0 e | Count (emergence) [2, 6]: 18.3 ef | Dwarfs (number of dwarfs not rescued) [2, 6]: 0 e | Count (emergence) [2, 7]: 10.3 c-f | Dwarfs (number of dwarfs not rescued) [2, 7]: 0.3 cd | Count (emergence) [2, 8]: 7.3 efg | Dwarfs (number of dwarfs not rescued) [2, 8]: 0 days | Count (emergence) [2, 9]: 2.0 g | Dwarfs (number of dwarfs not rescued) [2, 9]: 0 days | Count (emergence) [2, 10]: 31 bcd | Dwarfs (number of dwarfs not rescued) [2, 10]: 3.3 c | Count (emergence) [2, 11]: 27 cd | Dwarfs (number of dwarfs not rescued) [2, 11]: 0.3 de | Count (emergence) [2, 12]: 25 def | Dwarfs (number of dwarfs not rescued) [2, 12]: 0 days | Count (emergence) [2, 13]: 22 efg | Dwarfs (number of dwarfs not rescued) [2, 13]: 0 days | Count (emergence) [2, 14]: 45.3 ab | Dwarfs (number not rescued) [2, 14]: 0.3 e | Count (emergence) [2, 15]: 43.3 ab | Dwarfs (number not rescued) [2, 15]: 0 c | Count (emergence) [2, 16]: 42.7 ab | Dwarfs (number not rescued) [2, 16]: 0 c | Count (emergence) [2, 17]: 25.3 def | Dwarfs (number not rescued) [2, 17]: 0 | Count (emergence) [2, 18]: 22.0 efg | Dwarfs (number not rescued) [2, 18]: 0 | Count (emergence) [2, 19]: 33.7 a-e | Dwarfs (number not rescued) [2, 19]: 0 | rank of potential for rescuing GA-deficient dwarf soybeans without decreasing emergence [2]: GA9>GA5>GA3-3-acetate>GA3>GA12 | best to least selectivity order ([2]; Table 22): GA9>GA5>GA3-3-acetate>GA3
